Assay results reported in US8637484B2, “Modulation of growth hormone receptor expression and insulin-like growth factor expression” (Antisense Therapeutic Limited, priority 2003, dated 2014).
In the oligonucleotide strings, read from the 5' end, every base follows the letter of its sugar. An asterisk marks phosphorothioate; unmarked linkages are phosphodiester. Other units and linkages are bracketed, terminal groups are in braces. A string of capitals states the bases alone. e = 2'-O-(2-methoxyethyl) (MOE); [5mC] = 5-methylcytosine; d = 2'-deoxy (DNA)

Test system: human growth hormone receptor mRNA
Assay: Inhibition of human growth hormone receptor mRNA levels in MCF7 cells, quantitative real-time PCR
Format: cell-based
Design: concentration or dose not given beside the values
Conditions: averages from three experiments
Experimental: The human breast carcinoma cell line MCF-7 was obtained from the American Type Culture Collection (Manassas, Va.). MCF-7 cells were routinely cultured in DMEM low glucose (Gibco/Life Technologies, Gaithersburg, Md.) supplemented with 10% fetal calf serum (Gibco/Life Technologies, Gaithersburg, Md.). Cells were routinely passaged by trypsinization and dilution when they reached 90% confluence. Cells were seeded into 96-well plates (Falcon-Primaria #3872) at a density of 7000 cells/well for use in RT-PCR analysis.
When cells reached 65-75% confluency, they were treated with oligonucleotide. For cells grown in 96-well plates, wells were washed once with 100 μL OPTI-MEM™-1 reduced-serum medium (Invitrogen Corporation, Carlsbad, Calif.) and then treated with 130 μL of OPTI-MEM™-1 containing 3.75 μg/mL LIPOFECTIN™ (Invitrogen Corporation, Carlsbad, Calif.) and the desired concentration of oligonucleotide. Cells are treated and data are obtained in triplicate. After 4-7 hours of treatment at 37° C., the medium was replaced with fresh medium. Cells were harvested 16-24 hours after oligonucleotide treatment.
Total RNA was isolated using an RNEASY 96™ kit and buffers purchased from Qiagen Inc. (Valencia, Calif.) following the manufacturer's recommended procedures. Briefly, for cells grown on 96-well plates, growth medium was removed from the cells and each well was washed with 200 μL cold PBS. 150 μL Buffer RLT was added to each well and the plate vigorously agitated for 20 seconds. 150 μL of 70% ethanol was then added to each well and the contents mixed by pipetting three times up and down. The samples were then transferred to the RNEASY 96™ well plate attached to a QIAVAC™ manifold fitted with a waste collection tray and attached to a vacuum source. Vacuum was applied for 1 minute. 500 μL of Buffer RW1 was added to each well of the RNEASY 96™ plate and incubated for 15 minutes and the vacuum was again applied for 1 minute. An additional 500 μL of Buffer RW1 was added to each well of the RNEASY 96™ plate and the vacuum was applied for 2 minutes. 1 mL of Buffer RPE was then added to each well of the RNEASY 96™ plate and the vacuum applied for a period of 90 seconds. The Buffer RPE wash was then repeated and the vacuum was applied for an additional 3 minutes. The plate was then removed from the QIAVAC™ manifold and blotted dry on paper towels. The plate was then re-attached to the QIAVAC™ manifold fitted with a collection tube rack containing 1.2 mL collection tubes. RNA was then eluted by pipetting 140 μL of RNAse free water into each well, incubating 1 minute, and then applying the vacuum for 3 minutes.
Quantitation of growth hormone receptor mRNA levels was accomplished by real-time quantitative PCR using the ABI PRISM™ 7600, 7700, or 7900 Sequence Detection System (PE-Applied Biosystems, Foster City, Calif.) according to manufacturer's instructions. This is a closed-tube, non-gel-based, fluorescence detection system which allows high-throughput quantitation of polymerase chain reaction (PCR) products in real-time. As opposed to standard PCR in which amplification products are quantitated after the PCR is completed, products in real-time quantitative PCR are quantitated as they accumulate. This is accomplished by including in the PCR reaction an oligonucleotide probe that anneals specifically between the forward and reverse PCR primers, and contains two fluorescent dyes. A reporter dye (e.g., FAM or JOE, obtained from either PE-Applied Biosystems, Foster City, Calif., Operon Technologies Inc., Alameda, Calif. or Integrated DNA Technologies Inc., Coralville, Iowa) is attached to the 5′ end of the probe and a quencher dye (e.g., TAMRA, obtained from either PE-Applied Biosystems, Foster City, Calif., Operon Technologies Inc., Alameda, Calif. or Integrated DNA Technologies Inc., Coralville, Iowa) is attached to the 3′ end of the probe. When the probe and dyes are intact, reporter dye emission is quenched by the proximity of the 3′ quencher dye. […]

| Substance | % INHIB [%] |
| --- | --- |
| 227452 (antisense eT*e[5mC]*eA*eG*eG*dG*d[5mC]*dA*dT*dT*d[5mC]*dT*dT*dT*d[5mC]*e[5mC]*eA*eT*eT*e[5mC]) [compound 227452] | 79 |
| 227453 (antisense e[5mC]*eA*eT*eA*eA*dT*d[5mC]*dA*dG*dG*dG*d[5mC]*dA*dT*dT*e[5mC]*eT*eT*eT*e[5mC]) [compound 227453] | 52 |
| 227464 (antisense e[5mC]*e[5mC]*eT*eT*eT*dA*dA*dT*d[5mC]*dT*dT*dT*dG*dG*dA*eA*e[5mC]*eT*eG*eG) [compound 227464] | 58 |
| 227468 (antisense eT*e[5mC]*eA*eT*e[5mC]*dA*dA*dT*dA*dT*d[5mC]*dT*dA*dG*d[5mC]*eT*e[5mC]*eA*eA*eT) [compound 227468] | 62 |
| 227469 (antisense e[5mC]*eT*eT*eA*eG*dA*dA*dG*dT*d[5mC]*dT*dG*dT*d[5mC]*dT*eG*eT*eG*eT*e[5mC]) [compound 227469] | 63 |
| 227475 (antisense e[5mC]*e[5mC]*eT*eG*e[5mC]*dT*dG*dG*dT*dG*dT*dA*dA*dT*dG*eT*e[5mC]*eG*e[5mC]*eT) [compound 227475] | 68 |
| 227480 (antisense eA*eT*eG*eT*eA*dA*dA*dT*dG*dT*d[5mC]*d[5mC]*dT*d[5mC]*dT*eT*eG*eG*eT*eT) [compound 227480] | 66 |
| 227481 (antisense eT*eG*eG*eT*eG*dA*dT*dG*dT*dA*dA*dA*dT*dG*dT*e[5mC]*e[5mC]*eT*e[5mC]*eT) [compound 227481] | 45 |
| 227482 (antisense eT*eT*e[5mC]*eT*eG*dT*dG*dG*dT*dG*dA*dT*dG*dT*dA*eA*eA*eT*eG*eT) [compound 227482] | 53 |
| 227483 (antisense eA*eG*eG*e[5mC]*eT*dT*dT*d[5mC]*dT*dG*dT*dG*dG*dT*dG*eA*eT*eG*eT*eA) [compound 227483] | 75 |
| 227484 (antisense eT*eG*eG*eT*eA*dA*dG*dG*d[5mC]*dT*dT*dT*d[5mC]*dT*dG*eT*eG*eG*eT*eG) [compound 227484] | 63 |
| 227488 (antisense eA*eG*eT*eT*eG*dG*dT*d[5mC]*dT*dG*dT*dG*d[5mC]*dT*d[5mC]*eA*e[5mC]*eA*eT*eA) [compound 227488] | 86 |
| 227489 (antisense eT*eG*eT*eT*e[5mC]*dA*dG*dT*dT*dG*dG*dT*d[5mC]*dT*dG*eT*eG*e[5mC]*eT*e[5mC]) [compound 227489] | 75 |
| 227490 (antisense eG*e[5mC]*eA*eT*eG*dA*dT*dT*dT*dT*dG*dT*dT*d[5mC]*dA*eG*eT*eT*eG*eG) [compound 227490] | 67 |
| 227499 (antisense eT*eA*eT*eA*eA*dA*dA*dG*dG*dG*d[5mC]*dT*dT*dT*dG*eT*eA*eA*eA*eA) [compound 227499] | 14 |
| 227500 (antisense e[5mC]*eA*eT*eA*eG*d[5mC]*dA*dG*d[5mC]*dA*dA*dA*dG*dT*dA*eG*e[5mC]*eA*eG*eA) [compound 227500] | 69 |
| 227501 (antisense eG*e[5mC]*eT*eA*eT*dT*dT*dT*dT*dG*dG*d[5mC]*dT*dA*dT*eA*eG*eA*eA*eA) [compound 227501] | 64 |
| 227502 (antisense eG*eA*eT*eT*eG*dA*dG*dG*dT*dA*dT*dT*dT*dA*dG*e[5mC]*eT*eA*eT*eT) [compound 227502] | 56 |
| 272302 (antisense eG*eA*eT*e[5mC]*e[5mC]*dA*dT*dA*d[5mC]*d[5mC]*dT*dG*dT*dA*dG*eG*eA*e[5mC]*e[5mC]*eT) [compound 272302] | 60 |
| 272303 (antisense e[5mC]*e[5mC]*eA*eG*eA*dG*dA*dT*d[5mC]*d[5mC]*dA*dT*dA*d[5mC]*d[5mC]*eT*eG*eT*eA*eG) [compound 272303] | 55 |

| Substance | % INHIB [%] |
| --- | --- |
| 272304 (antisense eT*eG*e[5mC]*eT*eA*dA*dG*dG*dA*dT*dA*dG*d[5mC]*dT*dG*e[5mC]*eT*eG*eT*eG) [compound 272304] | 48 |
| 272305 (antisense eT*eT*eG*eT*e[5mC]*dT*dT*dT*dA*dG*dG*d[5mC]*d[5mC]*dT*dG*eG*eA*eT*eT*eA) [compound 272305] | 68 |
| 272306 (antisense eT*eT*eA*eG*eA*dA*dG*dA*dA*dT*dT*dT*dG*dT*d[5mC]*eT*eT*eT*eA*eG) [compound 272306] | 13 |
| 272307 (antisense eG*eT*eG*eA*eA*dT*dT*dT*dA*dG*dG*d[5mC]*dT*d[5mC]*d[5mC]*eT*eT*eA*eG*eA) [compound 272307] | 55 |
| 272308 (antisense eG*e[5mC]*eT*eG*eT*dA*dT*dG*dG*dG*dT*d[5mC]*d[5mC]*dT*dA*eG*eG*eT*eT*e[5mC]) [compound 272308] | 57 |
| 272309 (antisense eT*eA*eA*e[5mC]*eA*dG*d[5mC]*dT*dG*dT*dT*dT*dT*d[5mC]*d[5mC]*e[5mC]*e[5mC]*eA*eG*e[5mC]) [compound 272309] | 85 |
| 272310 (antisense eT*eT*eT*e[5mC]*eA*dT*d[5mC]*d[5mC]*dA*d[5mC]*dT*dG*dT*dA*d[5mC]*e[5mC]*eA*e[5mC]*e[5mC]*eA) [compound 272310] | 76 |
| 272311 (antisense eT*eT*eG*e[5mC]*eA*d[5mC]*dT*dA*dT*dT*dT*d[5mC]*dA*dT*d[5mC]*eA*eA*e[5mC]*eA*eG) [compound 272311] | 47 |
| 272312 (antisense eG*eG*eG*eT*eG*dG*dA*dT*d[5mC]*dT*dG*dG*dT*dT*dG*e[5mC]*eA*e[5mC]*eT*eA) [compound 272312] | 57 |
| 272313 (antisense eA*eT*eT*eG*e[5mC]*dG*dT*dG*dG*dT*dG*d[5mC]*dT*dT*d[5mC]*e[5mC]*e[5mC]*eA*eT*e[5mC]) [compound 272313] | 77 |
| 272314 (antisense eT*eA*eG*eG*eG*dT*d[5mC]*d[5mC]*dA*dT*d[5mC]*dA*dT*dT*dT*eT*e[5mC]*e[5mC]*eA*eT) [compound 272314] | 56 |
| 272315 (antisense e[5mC]*eA*eA*eT*eG*dA*dG*dT*dA*d[5mC]*dA*d[5mC]*dT*dG*dG*eA*eA*e[5mC]*eT*eG) [compound 272315] | 53 |
| 272316 (antisense eA*eA*e[5mC]*eT*e[5mC]*dG*d[5mC]*d[5mC]*dA*dT*dA*dA*dT*dT*dT*e[5mC]*e[5mC]*eA*eG*eA) [compound 272316] | 64 |
| 272317 (antisense eA*eG*e[5mC]*e[5mC]*e[5mC]*dA*dA*dA*dT*dA*dT*dT*d[5mC]*d[5mC]*dA*eA*eA*eG*eA*eT) [compound 272317] | 65 |
| 272318 (antisense eT*e[5mC]*eA*eG*e[5mC]*dA*dT*dT*dT*dT*dA*dA*dT*d[5mC]*d[5mC]*eT*eT*eT*eG*e[5mC]) [compound 272318] | 55 |
| 272319 (antisense eA*eT*eT*eT*eT*d[5mC]*d[5mC]*dT*dT*d[5mC]*d[5mC]*dT*dT*dG*dA*eG*eG*eA*eG*eA) [compound 272319] | 67 |
| 272320 (antisense eA*eG*eA*eT*eT*dG*dT*dG*dT*dT*d[5mC]*dA*d[5mC]*d[5mC]*dT*e[5mC]*e[5mC]*eT*e[5mC]*eT) [compound 272320] | 70 |
| 272321 (antisense eA*eA*e[5mC]*e[5mC]*e[5mC]*dA*dA*dG*dA*dG*dT*d[5mC]*dA*dT*d[5mC]*eA*e[5mC]*eT*eG*eT) [compound 272321] | 64 |
| 272322 (antisense e[5mC]*eT*eG*eG*e[5mC]*dT*d[5mC]*dA*dT*d[5mC]*dA*dA*dT*dA*dT*e[5mC]*eT*eA*eG*e[5mC]) [compound 272322] | 84 |
